In US20170210723A1, “MOLECULES HAVING PESTICIDAL UTILITY, AND INTERMEDIATES, COMPOSITIONS, AND PROCESSES, RELATED THERETO” (priority 2016, published 2017):

Tests used:
Type in all cases: in vivo
[1] = system: Cabbage Looper (Trichoplusia ni); assay: Bioassays on CL, 128-well diet tray assay; conditions: Trichoplusia ni, 168 h; 50 μg/cm^2 on artificial diet, second instar larvae, five to seven days; read-out: CL % Control (or Mortality) rating
In short: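 Second-instar larvae (1–5 per well) were fed diet surface-treated with 50 μg/cm^2 compound, eight wells each. After five to seven days at 25° C. under a 14:10 photoperiod, mortality was scored per well and the eight wells averaged.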

[2] = system: Yellow Fever Mosquito (Aedes aegypti); assay: Bioassays on Yellow Fever Mosquito larvae, 96-well plate; conditions: from 4000 ppm DMSO master plate, about 1 day-old larvae, 3 days
Procedure: Master plates containing 400 μg of a molecule dissolved in 100 μL of dimethyl sulfoxide (DMSO) (equivalent to a 4000 ppm solution) are used. A master plate of assembled molecules contains 15 μL per well. To this plate, 135 μL of a 90:10 water:acetone mixture is added to each well. A robot (Biomek® NXP Laboratory Automation Workstation) is programmed to dispense 15 μL aspirations from the master plate into an empty 96-well shallow plate (“daughter” plate). There are 6 reps (“daughter” plates) created per master. The created daughter plates are then immediately infested with YFM larvae.
The day before plates are to be treated, mosquito eggs are placed in Millipore water containing liver powder to begin hatching (4 g. into 400 mL). After the daughter plates are created using the robot, they are infested with 220 μL of the liver powder/larval mosquito mixture (about 1 day-old larvae). After plates are infested with mosquito larvae, a non-evaporative lid is used to cover the plate to reduce drying. Plates are held at room temperature for 3 days prior to grading. After 3 days, each well is observed and scored based on mortality. The results are indicated in the table entitled “Table ABC: Biological Results” (See Table Section). AGRICULTURALLY ACCEPTABLE ACID ADDITION SALTS, SALT DERIVATIVES, SOLVATES, ESTER DERIVATIVES, POLYMORPHS, ISOTOPES, AND RADIONUCLIDES

[3] = system: Beet Armyworm (Spodoptera exigua); assay: Bioassays on BAW, 128-well diet tray assay; conditions: Spodoptera exigua, 168 h; 50 μg/cm^2 on artificial diet, second instar larvae, five to seven days; read-out: BAW % Control (or Mortality) rating

| SMILES | mortality at 50 µg/cm2 [1] [%] | YFM % Control (or Mortality) rating [2] | mortality at 50 µg/cm2 [3] [%] |
| --- | --- | --- | --- |
| C[C@H](CS(=O)(=O)CC(F)(F)F)NC(=O)c1ccc(/C=C/C(c2cc(Br)cc(Br)c2)C(F)(F)F)cc1Cl (stereo partly drawn) [F65, 2-Chloro-4-((E)-3-(3,5-dibromophenyl)-4,4,4-trifluorobut-1-en-1-yl)-N—((R)-1-((2,2,2-trifluoroethyl)sulfonyl)propan-2-yl)benzamide] | 50 to 100 | A (80-100) | 50 to 100 |
| Cc1cc(/C=C/C(c2cc(Br)cc(Br)c2)C(F)(F)F)ccc1C(=O)N[C@H](C)CS(=O)(=O)CC(F)(F)F (stereo partly drawn) [F66, 4-((E)-3-(3,5-Dibromophenyl)-4,4,4-trifluorobut-1-en-1-yl)-2-methyl-N—((R)-1-((2,2,2-trifluoroethyl)sulfonyl)propan-2-yl)benzamide] | 50 to 100 | A (80-100) | 50 to 100 |
| C[C@H](CSCC(F)(F)F)NC(=O)c1ccc(/C=C/C(c2cc(Cl)c(Cl)c(Cl)c2)C(F)(F)F)cc1Cl (stereo partly drawn) [F67, 2-Chloro-4-((E)-4,4,4-trifluoro-3-(3,4,5-trichlorophenyl)but-1-en-1-yl)-N—((R)-1-((2,2,2-trifluoroethyl)thio)propan-2-yl)benzamide] | 50 to 100 | A (80-100) | 50 to 100 |
| CC[S+]([O-])C[C@@H](C)NC(=O)c1ccc(/C=C/C(c2cc(Cl)c(Cl)c(Cl)c2)C(F)(F)F)cc1C(F)(F)F (stereo partly drawn) [F69, N-((2R)-1-(Ethylsulfinyl)propan-2-yl)-4-((E)-4,4,4-trifluoro-3-(3,4,5-trichlorophenyl)but-1-en-1-yl)-2-(trifluoromethyl)benzamide] | 50 to 100 | A (80-100) | 50 to 100 |
| CCCSC[C@@H](C)NC(=O)c1ccc(/C=C/C(c2cc(Cl)c(Cl)c(Cl)c2)C(F)(F)F)cc1C(F)(F)F (stereo partly drawn) [F70, N—((R)-1-(Propylthio)propan-2-yl)-4-((E)-4,4,4-trifluoro-3-(3,4,5-trichlorophenyl)but-1-en-1-yl)-2-(trifluoromethyl)benzamide] | 50 to 100 | A (80-100) | 50 to 100 |
| CCc1cc(/C=C/C(c2cc(Cl)c(Cl)c(Cl)c2)C(F)(F)F)ccc1C(=O)N[C@H](C)CS(=O)(=O)CC(F)(F)F (stereo partly drawn) [F71, 2-Ethyl-4-((E)-4,4,4-trifluoro-3-(3,4,5-trichlorophenyl)but-1-en-1-yl)-N—((R)-1-((2,2,2-trifluoroethyl)sulfonyl)propan-2-yl)benzamide] | 50 to 100 | A (80-100) | 50 to 100 |
| C[C@H](C[S+]([O-])CC(F)(F)F)NC(=O)c1ccc(/C=C/C(c2cc(Br)cc(Br)c2)C(F)(F)F)cc1Cl (stereo partly drawn) [F72, 2-Chloro-4-((E)-3-(3,5-dibromophenyl)-4,4,4-trifluorobut-1-en-1-yl)-N-((2R)-1-((2,2,2-trifluoroethyl)sulfinyl)propan-2-yl)benzamide] | 50 to 100 | A (80-100) | 50 to 100 |
| Cc1cc(/C=C/C(c2cc(Br)cc(Br)c2)C(F)(F)F)ccc1C(=O)N[C@H](C)C[S+]([O-])CC(F)(F)F (stereo partly drawn) [F73, 4-((E)-3-(3,5-Dibromophenyl)-4,4,4-trifluorobut-1-en-1-yl)-2-methyl-N-((2R)-1-((2,2,2-trifluoroethyl)sulfinyl)propan-2-yl)benzamide] | 50 to 100 | A (80-100) | 50 to 100 |
| CC(C)CSC[C@@H](C)NC(=O)c1ccc(/C=C/C(c2cc(Cl)c(Cl)c(Cl)c2)C(F)(F)F)cc1C(F)(F)F (stereo partly drawn) [F85, N—((R)-1-(Isobutylthio)propan-2-yl)-4-((E)-4,4,4-trifluoro-3-(3,4,5-trichlorophenyl)but-1-en-1-yl)-2-(trifluoromethyl)benzamide] | 50 to 100 | A (80-100) | 50 to 100 |
| CC(C)SC[C@@H](C)NC(=O)c1ccc(/C=C/C(c2cc(Cl)c(Cl)c(Cl)c2)C(F)(F)F)cc1C(F)(F)F (stereo partly drawn) [F86, N-((R)-1-(Isopropylthio)propan-2-yl)-4-((E)-4,4,4-trifluoro-3-(3,4,5-trichlorophenyl)but-1-en-1-yl)-2-(trifluoromethyl) benzamide] | 50 to 100 | A (80-100) | 50 to 100 |
| CC(C)C[S+]([O-])C[C@@H](C)NC(=O)c1ccc(/C=C/C(c2cc(Cl)c(Cl)c(Cl)c2)C(F)(F)F)cc1C(F)(F)F (stereo partly drawn) [F87, N-((2R)-1-(Isobutylsulfinyl)propan-2-yl)-4-((E)-4,4,4-trifluoro-3-(3,4,5-trichlorophenyl)but-1-en-1-yl)-2-(trifluoromethyl)benzamide] | 50 to 100 | A (80-100) | 50 to 100 |
| C[C@H](CSCC(F)(F)F)NC(=O)c1ccc(/C=C/C(c2cc(Cl)cc(Cl)c2)C(F)(F)F)cc1C(F)(F)F (stereo partly drawn) [F88, 4-((E)-3-(3,5-Dichlorophenyl)-4,4,4-trifluorobut-1-en-1-yl)-N—((R)-1-((2,2,2-trifluoroethyl)thio)propan-2-yl)-2-(trifluoromethyl)benzamide] | 50 to 100 | A (80-100) | 50 to 100 |
| Cc1cc(/C=C/C(c2cc(Cl)cc(Cl)c2)C(F)(F)F)ccc1C(=O)N[C@H](C)CSCC(F)(F)F (stereo partly drawn) [F89, 4-((E)-3-(3,5-Dichlorophenyl)-4,4,4-trifluorobut-1-en-1-yl)-2-methyl-N—((R)-1-((2,2,2-trifluoroethyl)thio)propan-2-yl)benzamide] | 50 to 100 | A (80-100) | 50 to 100 |
| C[C@H](C[S+]([O-])CC(F)(F)F)NC(=O)c1ccc(/C=C/C(c2cc(Cl)cc(Cl)c2)C(F)(F)F)cc1C(F)(F)F (stereo partly drawn) [F90, 4-((E)-3-(3,5-Dichlorophenyl)-4,4,4-trifluorobut-1-en-1-yl)-N-((2R)-1-((2,2,2-trifluoroethyl)sulfinyl)propan-2-yl)-2-(trifluoromethyl)benzamide] | 50 to 100 | A (80-100) | 50 to 100 |
| Cc1cc(/C=C/C(c2cc(Cl)cc(Cl)c2)C(F)(F)F)ccc1C(=O)N[C@H](C)C[S+]([O-])CC(F)(F)F (stereo partly drawn) [F91, 4-((E)-3-(3,5-Dichlorophenyl)-4,4,4-trifluorobut-1-en-1-yl)-2-methyl-N-((2R)-1-((2,2,2-trifluoroethyl)sulfinyl)propan-2-yl)benzamide] | 50 to 100 | A (80-100) | 50 to 100 |
| Cc1cc(/C=C/C(c2cc(Cl)cc(Cl)c2)C(F)(F)F)ccc1C(=O)N[C@H](C)CS(=O)(=O)CC(F)(F)F (stereo partly drawn) [F92, 4-((E)-3-(3,5-Dichlorophenyl)-4,4,4-trifluorobut-1-en-1-yl)-2-methyl-N—((R)-1-((2,2,2-trifluoroethyl)sulfonyl)propan-2-yl)benzamide] | 50 to 100 | A (80-100) | 50 to 100 |
| C[C@H](CS(=O)(=O)CC(F)(F)F)NC(=O)c1ccc(/C=C/C(c2cc(Cl)cc(Cl)c2)C(F)(F)F)cc1C(F)(F)F (stereo partly drawn) [F93, 4-((E)-3-(3,5-Dichlorophenyl)-4,4,4-trifluorobut-1-en-1-yl)-N—((R)-1-((2,2,2-trifluoroethyl)sulfonyl)propan-2-yl)-2-(trifluoromethyl)benzamide] | 50 to 100 | A (80-100) | 50 to 100 |
| C[C@H](C[S+]([O-])CC(F)(F)F)NC(=O)c1ccc(/C=C/C(c2cc(Cl)cc(Cl)c2)C(F)(F)F)cc1Cl (stereo partly drawn) [F94, 2-Chloro-4-((E)-3-(3,5-dichlorophenyl)-4,4,4-trifluorobut-1-en-1-yl)-N-((2R)-1-((2,2,2-trifluoroethyl)sulfinyl)propan-2-yl)benzamide] | 50 to 100 | A (80-100) | 50 to 100 |
| C[C@H](CS(=O)(=O)CC(F)(F)F)NC(=O)c1ccc(/C=C/C(c2cc(Cl)cc(Cl)c2)C(F)(F)F)cc1Cl (stereo partly drawn) [F95, 2-Chloro-4-((E)-3-(3,5-dichlorophenyl)-4,4,4-trifluorobut-1-en-1-yl)-N—((R)-1-((2,2,2-trifluoroethyl)sulfonyl)propan-2-yl)benzamide] | 50 to 100 | A (80-100) | 50 to 100 |
| C[C@H](CCSCC(F)(F)F)NC(=O)c1ccc(/C=C/C(c2cc(Cl)c(Cl)c(Cl)c2)C(F)(F)F)cc1C(F)(F)F (stereo partly drawn) [F96, 4-((E)-4,4,4-Trifluoro-3-(3,4,5-trichlorophenyl)but-1-en-1-yl)-N—((R)-4-((2,2,2-trifluoroethyl)thio)butan-2-yl)-2-(trifluoromethyl)benzamide] | 50 to 100 | A (80-100) | 50 to 100 |
